Test results taken from patent publication US20140228430A1, “Method of Accelerating Corneal Wound Healing” (Alcon Research, Ltd., priority 2010, published 2014).

Tested on: Rat Model of Corneal Injury
Test: Rat model of corneal injury (corneal epithelial wound closure)
Type: in vivo
Conditions: topical ocular 5 μl every 2 hrs for first 8 hrs, female Lewis rats, compared with positive control 0.4% HA; for normalized number of completely healed eyes (Healed 24 hours n=10): number/10 eyes
Method: Female Lewis rats (175-200 g) were anesthetized with a xylazine/ketamine cocktail (5 mg/kg and 50 mg/kg respectively). A 3 mm diameter circle was superficially demarcated on the central cornea using a 3 mm trephine. Using a corneal rust ring remover (AlgerbrushΠ Alger Co.) tipped with a 1 mm steel burr; the corneal epithelium was removed to the basement membrane within the established 3 mm boundary Immediately following epithelial removal, the corneas were topically stained with 2% sodium fluorescein (Alcon), washed with balanced saline (BSS) and Time 0 hrs images acquired. After 24 hrs, animals were again anesthetized and Time 24 hrs images were acquired.
Immediately after acquisition of Time 0 images, test articles (5 μl) were topically administered to the ocular surface. Animals received topical administration every 2 hrs for the first 8 hrs of the 24 hrs study time. A 0.4% solution of Hyaluronic Acid (HA) was prepared in phosphate-buffered saline (PBS). Compounds 1 and 5 were prepared in PBS and stored at −70° C. until use. During dosing, compounds were stored at 4° C.
Anesthetized rats (Time 0: xylazine/ketamine; Time 24 hrs: 5% isoflurane gas). The area of the cornea devoid of epithelial cells was stained by topical application of a 2% sodium fluorescein solution (Alcon), followed 10 seconds later with a thorough rinsing with BSS. Images from stained eyes were collected with a Canon digital camera fitted with a macro and close-up lens such that the cornea filled almost the entire image field. A continuous and flash illumination was provided with a Novoflex Cold Light Source Macrolight Plus illuminator. The continuous source was used to focus the eye with the aid of the video output of the Canon camera. A flash lamp illuminator and ring light attached to the camera lens system provided a synchronized and uniform illumination of the corneal surface. Eyes were illuminated and images were captured through a set of filters designed for fluorescein excitation (482±35 nm) and emission (536±40 nm).
Two image files were recorded for each exposure, a JPG-format RGB (red-green-blue) file used for image display and a Canon Raw file containing the raw sensor data. The raw data was extracted to a 16-bit portable greymap file that was subsequently processed with a demosaic function to make an image of only the green pixels containing the fluorescein information. A circular region of interest (ROI) was centered on the cornea and the automated analysis was performed using RatOSIWound v 2.0 software (Alcon). Automated analysis calculated the total fluorescein positive area of a single large spot indicative of the epithelial wound. The % closure at 24 hours (indicated as “% Closure 24 hours” on the ordinate axis of the graphs in FIGS. 1 and 3) was calculated as
while the number of eyes that were totally healed (that is, had no detectable defect; indicated as “Healed 24 hours n=10” on the ordinate axis of the graphs in FIGS. 2 and 4), normalized as number/10 eyes, was also determined
Data were analyzed using an ANOVA with a Dunnett post-hoc test at a 95% confidence interval.

SMILES | % wound closure (% Closure 24 hours) (1% w/v dose in PBS) | normalized number of completely healed eyes (Healed 24 hours n=10) (1% w/v dose in PBS) | % wound closure (% Closure 24 hours) (0.5% w/v dose in PBS) | normalized number of completely healed eyes (Healed 24 hours n=10) (0.5% w/v dose in PBS)
O=C([O-])CCC[C@H](O)[C@H](O)CO.[Li+] [compound 5] | as effective as the positive control 0.4% HA | as effective as the positive control 0.4% HA |  | 
COC(=O)CCC[C@H](O)[C@H](O)CO [compound 1] | as effective as the positive control 0.4% HA | as effective as the positive control 0.4% HA | as effective as the positive control 0.4% HA | as effective as the positive control 0.4% HA
